Target: T1, Nav1.7 (or SCN9A) channel; HEK cells stably transfected with hSCN9A (Homo sapiens, UniProt Q15858)
T1 construct: expressed in transfected cells
Experiment: Nav1.7 block, PatchXpress 7000 automated whole-cell voltage clamp, estimated IC50 (EIC50)
Assay type: cell-based
Conditions: PatchXpress platform, estimated IC50

[1] = hSCN9A HEK cells held at V1/2 of inactivation
[2] = hSCN9A HEK cells, Examples 283-814
[3] = hSCN9A HEK cells, Examples 815-1040

T1 sequence (Q15858 whole entry): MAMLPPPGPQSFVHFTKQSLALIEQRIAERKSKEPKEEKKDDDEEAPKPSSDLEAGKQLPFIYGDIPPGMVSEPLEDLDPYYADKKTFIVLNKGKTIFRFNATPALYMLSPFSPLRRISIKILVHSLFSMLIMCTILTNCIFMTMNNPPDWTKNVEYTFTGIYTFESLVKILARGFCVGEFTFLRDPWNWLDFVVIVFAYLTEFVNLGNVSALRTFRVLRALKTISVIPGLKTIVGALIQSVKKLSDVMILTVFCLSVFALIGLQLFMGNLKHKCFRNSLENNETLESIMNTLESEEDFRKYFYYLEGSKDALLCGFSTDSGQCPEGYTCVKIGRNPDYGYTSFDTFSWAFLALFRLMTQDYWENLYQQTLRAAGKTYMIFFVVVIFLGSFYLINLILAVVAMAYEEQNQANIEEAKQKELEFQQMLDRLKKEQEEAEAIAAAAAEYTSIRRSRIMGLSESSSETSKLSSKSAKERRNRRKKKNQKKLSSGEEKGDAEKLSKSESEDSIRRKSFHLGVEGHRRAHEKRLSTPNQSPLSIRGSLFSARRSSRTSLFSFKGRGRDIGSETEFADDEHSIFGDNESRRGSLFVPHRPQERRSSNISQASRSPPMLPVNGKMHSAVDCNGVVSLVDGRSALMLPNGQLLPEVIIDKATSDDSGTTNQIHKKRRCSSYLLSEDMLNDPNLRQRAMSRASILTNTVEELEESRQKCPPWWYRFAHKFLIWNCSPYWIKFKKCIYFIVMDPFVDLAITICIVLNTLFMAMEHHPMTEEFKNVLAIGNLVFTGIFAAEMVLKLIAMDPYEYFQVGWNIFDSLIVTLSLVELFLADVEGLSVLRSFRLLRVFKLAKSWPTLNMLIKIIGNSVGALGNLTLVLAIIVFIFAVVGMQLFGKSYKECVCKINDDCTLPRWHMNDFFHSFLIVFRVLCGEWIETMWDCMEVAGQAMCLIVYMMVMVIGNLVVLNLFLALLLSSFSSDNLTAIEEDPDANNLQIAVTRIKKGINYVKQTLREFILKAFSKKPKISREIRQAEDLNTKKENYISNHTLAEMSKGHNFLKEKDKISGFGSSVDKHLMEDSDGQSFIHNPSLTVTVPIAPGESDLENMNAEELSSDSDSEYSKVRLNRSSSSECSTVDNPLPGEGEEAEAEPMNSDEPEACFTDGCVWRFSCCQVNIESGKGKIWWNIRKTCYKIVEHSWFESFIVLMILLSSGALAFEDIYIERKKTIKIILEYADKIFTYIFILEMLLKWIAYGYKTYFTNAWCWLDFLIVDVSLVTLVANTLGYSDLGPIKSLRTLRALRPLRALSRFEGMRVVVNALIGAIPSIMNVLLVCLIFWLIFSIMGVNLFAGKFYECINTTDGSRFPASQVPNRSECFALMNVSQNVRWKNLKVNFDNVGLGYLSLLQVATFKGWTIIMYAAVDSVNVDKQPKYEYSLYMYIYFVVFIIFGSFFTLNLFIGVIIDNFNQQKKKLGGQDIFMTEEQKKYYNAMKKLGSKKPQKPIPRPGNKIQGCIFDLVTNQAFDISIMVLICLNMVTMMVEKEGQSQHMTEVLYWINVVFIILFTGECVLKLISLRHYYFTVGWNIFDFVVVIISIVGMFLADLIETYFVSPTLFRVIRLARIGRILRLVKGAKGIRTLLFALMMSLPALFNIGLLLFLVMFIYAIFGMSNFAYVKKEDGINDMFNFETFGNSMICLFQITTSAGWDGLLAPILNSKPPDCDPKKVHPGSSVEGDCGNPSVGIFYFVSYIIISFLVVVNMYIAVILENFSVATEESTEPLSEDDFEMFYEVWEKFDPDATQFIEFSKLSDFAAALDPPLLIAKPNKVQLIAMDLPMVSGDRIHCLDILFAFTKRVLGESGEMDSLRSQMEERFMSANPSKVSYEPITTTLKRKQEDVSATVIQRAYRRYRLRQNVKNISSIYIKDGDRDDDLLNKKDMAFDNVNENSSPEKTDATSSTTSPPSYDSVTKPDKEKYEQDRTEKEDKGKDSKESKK

Molecule	IC50 [2] [nM]	other results
O=S(=O)(Nc1nccs1)c1ccc(Oc2cc(C(F)(F)F)nn2-c2ccccc2)c(F)c1 [Example 229, 3-fluoro-4-(2-phenyl-5-trifluoromethyl-2H-pyrazol-3-yloxy)-N-thiazol-2-yl-benzenesulfonamide]		IC50 [1]: 120 nM
N#Cc1cc(S(=O)(=O)Nc2nccs2)ccc1Oc1ccc(Cl)cc1-c1cccnc1 [Example 700, 4-(4-chloro-2-pyridin-3-ylphenoxy)-3-cyano-N-1,3-thiazol-2-ylbenzenesulfonamide]	57	
N#Cc1cc(S(=O)(=O)Nc2ccnc(C(F)(F)F)n2)ccc1Oc1ccccc1-c1ccccc1 [Example 116, 4-(biphenyl-2-yloxy)-3-cyano-N-[2-(trifluoromethyl)pyrimidin-4-yl]benzenesulfonamide]		IC50 [1]: 3110 nM
Cn1nccc1-c1cc(Cl)ccc1Oc1ccc(S(=O)(=O)Nc2cccnc2)cc1C#N [Example 923, 4-[4-chloro-2-(1-methyl-1H-pyrazol-5-yl)phenoxy]-3-cyano-N-pyridin-3-ylbenzenesulfonamide]		IC50 [3]: >10000 nM
O=S(=O)(Nc1cscn1)c1ccc(Oc2ccc(Cl)cc2-c2cn[nH]c2)c(F)c1 [Example 611, 4-[4-chloro-2-(1H-pyrazol-4-yl)phenoxy]-3-fluoro-N-1,3-thiazol-4-ylbenzenesulfonamide]	520	
N#Cc1cc(S(=O)(=O)Nc2ncns2)ccc1Oc1ccc(Br)cc1-c1cn[nH]c1 [Example 503, 4-[Bromo-2-(1H-pyrazol-4-yl)phenoxy]-3-cyano-N-1,2,4-thiadiazol-5-ylbenzenesulfonamide]	7	
N#Cc1cc(S(=O)(=O)Nc2ncc(Cl)s2)ccc1Oc1ccc(C(F)(F)F)cc1-c1cn[nH]c1 [Example 590, N-(5-Chloro-1,3-thiazol-2-yl)-3-cyano-4-[2-(1H-pyrazol-4-yl)-4-(trifluoromethyl)phenoxy]benzenesulfonamide]	53	
O=S(=O)(Nc1ncns1)c1ccc(Oc2ccc(Cl)cc2-c2ccnnc2)c(Cl)c1 [Example 898, 3-chloro-4-(4-chloro-2-pyridazin-4-ylphenoxy)-N-1,2,4-thiadiazol-5-ylbenzenesulfonamide]		IC50 [3]: 5.1 nM
N#Cc1cc(S(=O)(=O)Nc2ncns2)ccc1Oc1cc(F)c(Cl)cc1-c1cn[nH]c1 [Example 804, 4-[4-chloro-5-fluoro-2-(1H-pyrazol-4-yl)phenoxy]-3-cyano-N-1,2,4-thiadiazol-5-ylbenzenesulfonamide]	1.2	
4-[2-fluoro-4-(3-methoxy-1-methyl-1H-pyrazol-5-yl)phenoxy]-N-1,3-thiazol-2-ylbenzenesulfonamide [Example 435]	2700	
N#Cc1cc(S(=O)(=O)Nc2nccs2)ccc1Oc1ccc(Cl)cc1-c1ccnn1-c1ccccc1 [Example 171, 4-(4-chloro-2-(1-phenyl-1H-pyrazol-5-yl)phenoxy)-3-cyano-N-(thiazol-2-yl)benzenesulfonamide]		IC50 [1]: 110 nM
CCn1nc(C(F)(F)F)cc1-c1ccc(Oc2cc(F)c(S(=O)(=O)Nc3nccs3)cc2Cl)cc1 [Example 305, 5-chloro-4-{4-[1-ethyl-3-(trifluoromethyl)-1H-pyrazol-5-yl]phenoxy}-2-fluoro-N-1,3-thiazol-2-ylbenzenesulfonamide]	97	
N#Cc1cc(S(=O)(=O)Nc2ncns2)ccc1Oc1cc(C(F)(F)F)nn1-c1ccccc1F [Example 88, 3-cyano-4-{[1-(2-fluorophenyl)-3-(trifluoromethyl)-1H-pyrazol-5-yl]oxy}-N-1,2,4-thiadiazol-5-ylbenzenesulfonamide]		IC50 [1]: 270 nM
Cc1ccc(Oc2ccc(S(=O)(=O)Nc3ncns3)cc2C#N)c(-c2nn(C)cc2C)c1 [Example 28, 3-cyano-4-(2-(1,4-dimethyl-1H-pyrazol-3-yl)-4-methylphenoxy)-N-(1,2,4-thiadiazol-5-yl)benzenesulfonamide]		IC50 [1]: 2980 nM
N#Cc1cc(S(=O)(=O)Nc2ncns2)ccc1Oc1ccccc1-c1cc(F)ccc1F [Example 36, 3-cyano-4-[(2′,5′-difluorobiphenyl-2-yl)oxy]-N-1,2,4-thiadiazol-5-ylbenzenesulfonamide]		IC50 [1]: 1290 nM
Cc1cccc(-c2cc(F)ccc2F)c1Oc1ccc(S(=O)(=O)Nc2ncns2)cc1C#N [Example 31, 3-cyano-4-[(2′,5′-difluoro-3-methylbiphenyl-2-yl)oxy]-N-1,2,4-thiadiazol-5-ylbenzenesulfonamide]		IC50 [1]: 16200 nM
O=S(=O)(Nc1nncs1)c1cc(Cl)c(Oc2cc(F)c(C(F)(F)F)cc2-c2ccnnc2)cc1F [Example 1034, 5-Chloro-2-fluoro-4-[5-fluoro-2-pyridazin-4-yl-4-(trifluoromethyl)phenoxy]-N-1,3,4-thiadiazol-2-ylbenzenesulfonamide]		IC50 [3]: 11 nM
O=S(=O)(Nc1cscn1)c1cc(F)c(Oc2ccc(Cl)cc2-c2ccnc(CN3CCC3)c2)cc1F [Example 1032, 4-{2-[2-(Azetidin-1-ylmethyl)pyridin-4-yl]-4-chlorophenoxy}-2,5-difluoro-N-1,3-thiazol-4-ylbenzenesulfonamide]		IC50 [3]: 13 nM
O=S(=O)(Nc1nncs1)c1cc(Cl)c(Oc2cc(F)c(OC(F)(F)F)cc2-c2ccnnc2)cc1F [Example 963, 5-chloro-2-fluoro-4-[5-fluoro-2-pyridazin-4-yl-4-(trifluoromethoxy)phenoxy]-N-1,3,4-thiadiazol-2-ylbenzenesulfonamide]		IC50 [3]: 15 nM
Cn1nccc1-c1cc(C(F)(F)F)ccc1Oc1cc(F)c(S(=O)(=O)Nc2ncns2)cc1F [Example 468, 2,5-difluoro-4-[2-(1-methyl-1H-pyrazol-5-yl)-4-(trifluoromethyl)phenoxy]-N-1,2,4-thiadiazol-5-ylbenzenesulfonamide]	29	
O=S(=O)(Nc1cscn1)c1cc(F)c(Oc2ccc(C(F)(F)F)cc2-c2ccnnc2)cc1F [Example 954, 2,5-difluoro-4-[2-pyridazin-4-yl-4-(trifluoromethyl)phenoxy]-N-1,3-thiazol-4-ylbenzenesulfonamide]		IC50 [3]: 240 nM
N#Cc1cc(S(=O)(=O)Nc2ncns2)ccc1Oc1ccc(Cl)cc1-c1ccnnc1 [Example 868, 4-(4-chloro-2-pyridazin-4-ylphenoxy)-3-cyano-N-1,2,4-thiadiazol-5-ylbenzenesulfonamide]		IC50 [3]: 15 nM
CCn1nc(C(F)(F)F)cc1-c1ccc(Oc2ccc(S(=O)(=O)Nc3ccc(C#N)cn3)cc2C#N)cc1 [Example 343, 3-cyano-N-(5-cyanopyridin-2-yl)-4-{4-[1-ethyl-3-(trifluoromethyl)-1H-pyrazol-5-yl]phenoxy}benzenesulfonamide]	>10000	
Nc1cccc(-c2cc(Cl)ccc2Oc2cc(F)c(S(=O)(=O)Nc3ncns3)cc2Cl)n1 [Example 403, 4-[2-(6-aminopyridin-2-yl)-4-chlorophenoxy]-5-chloro-2-fluoro-N-1,2,4-thiadiazol-5-ylbenzenesulfonamide]	4.5	
N#Cc1cc(S(=O)(=O)Nc2cc(C(F)(F)F)ncn2)ccc1Oc1ccccc1-c1ccccc1 [Example 115, 4-(biphenyl-2-yloxy)-3-cyano-N-[6-(trifluoromethyl)pyrimidin-4-yl]benzenesulfonamide]		IC50 [1]: >10000 nM

Second part, led by results:

IC50 [2] [nM]	Molecule	other results
300	Cn1nccc1-c1cc(F)ccc1Oc1ccc(S(=O)(=O)Nc2ncc(F)s2)cc1F [Example 347, 3-fluoro-4-[4-fluoro-2-(1-methyl-1H-pyrazol-5-yl)phenoxy]-N-(5-fluoro-1,3-thiazol-2-yl)benzenesulfonamide]	
4.8	O=S(=O)(Nc1ncns1)c1cc(Cl)c(Oc2ccc(F)cc2-c2ccn[nH]2)cc1F [Example 620, 5-chloro-2-fluoro-4-[4-fluoro-2-(1H-pyrazol-5-yl)phenoxy]-N-1,2,4-thiadiazol-5-ylbenzenesulfonamide]	
260	N#Cc1cc(S(=O)(=O)Nc2ncns2)ccc1Oc1ccc(C(F)(F)F)cc1-c1cnccn1 [Example 671, 3-cyano-4-[2-pyrazin-2-yl-4-(trifluoromethyl)phenoxy]-N-1,2,4-thiadiazol-5-ylbenzenesulfonamide]	
340	Cn1nc(C(F)(F)F)cc1-c1ccc(Oc2ccc(S(=O)(=O)Nc3nccs3)cc2C#N)cc1F [Example 329, 3-cyano-4-{3-fluoro-4-[1-methyl-3-(trifluoromethyl)-1H-pyrazol-5-yl]phenoxy}-N-1,3-thiazol-2-ylbenzenesulfonamide]	
120	N#Cc1cc(S(=O)(=O)Nc2nccs2)ccc1Oc1ccccc1-c1cn[nH]c1N [Example 707, 4-[2-(5-amino-1H-pyrazol-4-yl)phenoxy]-3-cyano-N-1,3-thiazol-2-ylbenzenesulfonamide]	
940	Cn1nccc1-c1cc(C(F)(F)F)ncc1Oc1ccc(S(=O)(=O)Nc2cscn2)cc1C#N [Example 601, 3-cyano-4-{[4-(1-methyl-1H-pyrazol-5-yl)-6-(trifluoromethyl)pyridin-3-yl]oxy}-N-1,3-thiazol-4-ylbenzenesulfonamide]	
2100	Cn1ncnc1-c1cc(Cl)ccc1Oc1ccc(S(=O)(=O)Nc2nccs2)cc1C#N [Example 326, 4-[4-chloro-2-(1-methyl-1H-1,2,4-triazol-5-yl)phenoxy]-3-cyano-N-1,3-thiazol-2-ylbenzenesulfonamide]	
8700	CC(C)(C)n1ccc(Cc2cccc(Oc3ccc(S(=O)(=O)Nc4cscn4)cc3C#N)c2)n1 [Example 769, 4-{3-[(1-tert-butyl-1H-pyrazol-3-yl)methyl]phenoxy}-3-cyano-N-1,3-thiazol-4-ylbenzenesulfonamide]	
>1000	O=S(=O)(Nc1cscn1)c1cc(Cl)c(Oc2cc(C(F)(F)F)ccc2-c2cncnc2)cc1F [Example 518, 5-chloro-2-fluoro-4-[2-pyrimidin-5-yl-5-(trifluoromethyl)phenoxy]-N-1,3-thiazol-4-ylbenzenesulfonamide]	
370	CCn1nc(C(F)(F)F)cc1-c1ccc(Oc2ccc(S(=O)(=O)Nc3nccs3)cc2C#N)cc1F [Example 327, 3-cyano-4-{4-[1-ethyl-3-(trifluoromethyl)-1H-pyrazol-5-yl]-3-fluorophenoxy}-N-1,3-thiazol-2-ylbenzenesulfonamide]	

— patent US8541588B2, “Sulfonamide derivatives” (Pfizer Limited, priority 2009, dated 2013)
